Literature values, collected in US20040024042A1, “COX2 inhibition in the prevention and treatment of autosomal dominant polycystic kidney disease” (Vanderbilt University, priority 2002, published 2004).

Columns and labels:
[1] = tested on: PKD in animal models
[2] = target: Cytochrome P450 2C9 (Homo sapiens, UniProt P11712)
[3] = tested on: albumin and alpha1-acid glycoprotein; conditions: within the clinical dose range
[4] = not given; remark: listed apart in the source
[5] = tested on: warfarin metabolism; conditions: in vivo
[6] = not given; remark: listed apart in the source
[7] = tested on: Cytochrome P450 3A4
[8] = tested on: mouse models of FAP; conditions: mice treated with COX2 inhibitor

Chain of Cytochrome P450 2C9 (P11712 whole entry): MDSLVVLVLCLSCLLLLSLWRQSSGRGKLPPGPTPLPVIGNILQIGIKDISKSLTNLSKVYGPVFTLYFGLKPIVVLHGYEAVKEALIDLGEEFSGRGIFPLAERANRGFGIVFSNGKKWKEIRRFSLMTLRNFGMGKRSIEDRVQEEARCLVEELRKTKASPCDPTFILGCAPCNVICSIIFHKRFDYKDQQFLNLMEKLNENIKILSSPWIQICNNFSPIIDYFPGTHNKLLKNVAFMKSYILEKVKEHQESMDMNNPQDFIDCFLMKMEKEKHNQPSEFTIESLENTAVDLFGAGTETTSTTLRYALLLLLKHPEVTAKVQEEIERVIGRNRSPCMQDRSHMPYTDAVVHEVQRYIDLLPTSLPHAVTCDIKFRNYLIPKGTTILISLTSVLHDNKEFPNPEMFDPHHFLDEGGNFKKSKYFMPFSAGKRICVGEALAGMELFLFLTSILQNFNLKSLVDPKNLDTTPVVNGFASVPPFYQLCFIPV

With CC(=O)O[C@H]1C(=O)[C@@]2(C)[C@H]([C@H](OC(=O)c3ccccc3)[C@]3(O)C[C@H](OC(=O)[C@H](O)[C@@H](NC(=O)c4ccccc4)c4ccccc4)C(C)=C1C3(C)C)[C@]1(OC(C)=O)CO[C@@H]1C[C@@H]2O [Taxol] as the molecule, how does the “Progression of PKD” value [1] read?
Its value is “slow progression of PKD”.

Which Major metabolizing enzyme [2] does the source give for Cc1ccc(-c2cc(C(F)(F)F)nn2-c2ccc(S(N)(=O)=O)cc2)cc1 [celecoxib, 4-[5-(4-methyphenyl)-3-(trifluoromethyl)-1H-pyrazol-1-yl] benzenesulfonamide] here?
Its Major metabolizing enzyme is “Cytochrome P450 2C9”.

And the “Time of peak plasma levels” value (after an oral dose)?
The value was “roughly 3 hours”.

And the “Effect of antacids on plasma concentrations” value (aluminum or magnesium containing antacids)?
The value was “decrease in plasma concentrations”.

What about the Effective half-life (fasted conditions) of the same molecule?
Its Effective half-life is “roughly 11 hours”.

What about the “Dose excreted in feces” value (following a single dose) of the same molecule?
Its value is 57%.

And the “Dose excreted in the urine” value (following a single dose)?
Its value is 27%.

What about the “Delay of plasma levels with food” value (taken with a high fat meal) of the same molecule?
The value was 1 to 2 h.

And the “Increase in total absorption with food” value (taken with a high fat meal)?
The value was 10-20%.

What about the Protein binding [3] of the same molecule?
Its Protein binding is “highly protein bound”.

With CS(=O)(=O)c1ccc(C2=C(c3ccccc3)C(=O)OC2)cc1 [rofecoxib] as the molecule, how does the “Crossing of the placenta and the blood-brain barrier” value ([4]; animal studies) read?
Its value is “able to cross the placenta and the blood-brain barrier”.

What about the Excretion in milk ([4]; lactating animals) of the same molecule?
The Excretion in milk was “excreted in the milk of lactating animals”.

And the “Increase of INR with warfarin” value [5]?
The value was “about 10%”.

What about the “Time to steady state level” value ([6]; 25 mg qday) of the same molecule?
Its value is 4 days.

And the “Increase of AUC in moderate hepatic insufficiency” value ([6]; Child-Pugh score 7-9)?
The value was 69%.

What about the “Peak plasma concentration (Cmax)” value ([6]; after a 25-mg dose) of the same molecule?
Its value is 200 ng/mL.

And the “Reduction of Cmax by antacids” value ([6]; antacids)?
Its value is 20%.

What about the “Reduction of extent of absorption by antacids” value ([6]; antacids) of the same molecule?
Its value is 10-15%.

And the “Increase in bioavailability in elderly patients” value ([6]; elderly patients (>65 yrs) compared to young subjects)?
Its value is 34%.

And the Cd ([6]; in vivo)?
The Cd was 90 L.

What about the “Dose excreted unchanged in the urine” value ([6]; in vivo) of the same molecule?
The value was under 1%.

What about the Oral bioavailability ([6]; in vivo, po) of the same molecule?
The Oral bioavailability was over 90%.

What about the Accumulation factor ([6]; repeated administration) of the same molecule?
The Accumulation factor was 1.67.

And the Cssmax ([6]; steady state, 25 mg qday)?
The Cssmax was 320 ng/mL.

What about the “Induction of the 3A4 isoform” value ([7]; in vivo) of the same molecule?
The value was “mild inducer”.

And the “Substrate of the P450 system” value ([7]; in vivo)?
Its value is “not a substrate for the P450 system”.

And the “Reduction of the AUC of midazolam” value ([7]; rofecoxib 25 mg daily)?
The value was 30%.

What about the Polyp formation [8] of the same molecule?
Its Polyp formation is “marked reduction in polyp formation”.
